Experimental data taken from patent publication US20240270762A1, “PENICILLIN-BINDING PROTEIN INHIBITORS” (priority 2021, published 2024).

Key:
A. baumannii PBP2 = A. baumannii PBP2 (Acinetobacter baumannii, UniProt D0C8Z9); experiment: Bocillin-FL competition binding via gel filtration, A. baumannii PBP2
Outline: (§1)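 Competitive equilibrium binding; reporter Bocillin-FL. PBP + inhibitor (titration) pre-incubated → Bocillin-FL, 15 min → gel filtration → fluorescence. EC50 from Hill fit of fraction bound vs [inhibitor].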

A. baumannii PBP1a = target: T1, A. baumannii PBP1a (Acinetobacter baumannii, UniProt A0ABX6CK30); experiment: Bocillin-FL competition binding via gel filtration, A. baumannii PBP1a; conditions: competition binding assay using Bocillin-FL via gel filtration; read-out: A. baumannii PBP1a Potency
T1 sequence (A0ABX6CK30 1-851): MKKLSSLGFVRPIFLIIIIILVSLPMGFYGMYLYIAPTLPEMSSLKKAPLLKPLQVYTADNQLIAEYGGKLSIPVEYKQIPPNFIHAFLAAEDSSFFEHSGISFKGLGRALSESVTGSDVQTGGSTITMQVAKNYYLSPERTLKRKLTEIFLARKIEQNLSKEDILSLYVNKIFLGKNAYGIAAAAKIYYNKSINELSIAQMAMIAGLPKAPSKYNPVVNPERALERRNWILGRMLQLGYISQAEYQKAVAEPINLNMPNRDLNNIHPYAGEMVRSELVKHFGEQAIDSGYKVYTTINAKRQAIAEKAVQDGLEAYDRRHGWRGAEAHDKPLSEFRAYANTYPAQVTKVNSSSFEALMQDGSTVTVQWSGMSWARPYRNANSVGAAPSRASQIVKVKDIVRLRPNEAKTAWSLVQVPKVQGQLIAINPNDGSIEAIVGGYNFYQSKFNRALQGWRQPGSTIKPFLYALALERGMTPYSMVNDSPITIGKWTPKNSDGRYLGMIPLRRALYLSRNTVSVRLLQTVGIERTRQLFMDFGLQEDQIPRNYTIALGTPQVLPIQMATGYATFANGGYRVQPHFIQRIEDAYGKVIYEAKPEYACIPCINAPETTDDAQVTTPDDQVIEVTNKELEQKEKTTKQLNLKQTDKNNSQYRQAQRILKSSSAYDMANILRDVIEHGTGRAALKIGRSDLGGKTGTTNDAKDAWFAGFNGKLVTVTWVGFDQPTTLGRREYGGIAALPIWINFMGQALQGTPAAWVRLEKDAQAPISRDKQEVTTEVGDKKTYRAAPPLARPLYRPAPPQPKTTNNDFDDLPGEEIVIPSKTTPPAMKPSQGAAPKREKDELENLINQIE
Outline: as §1

Sequence of A. baumannii PBP2 (D0C8Z9 whole entry): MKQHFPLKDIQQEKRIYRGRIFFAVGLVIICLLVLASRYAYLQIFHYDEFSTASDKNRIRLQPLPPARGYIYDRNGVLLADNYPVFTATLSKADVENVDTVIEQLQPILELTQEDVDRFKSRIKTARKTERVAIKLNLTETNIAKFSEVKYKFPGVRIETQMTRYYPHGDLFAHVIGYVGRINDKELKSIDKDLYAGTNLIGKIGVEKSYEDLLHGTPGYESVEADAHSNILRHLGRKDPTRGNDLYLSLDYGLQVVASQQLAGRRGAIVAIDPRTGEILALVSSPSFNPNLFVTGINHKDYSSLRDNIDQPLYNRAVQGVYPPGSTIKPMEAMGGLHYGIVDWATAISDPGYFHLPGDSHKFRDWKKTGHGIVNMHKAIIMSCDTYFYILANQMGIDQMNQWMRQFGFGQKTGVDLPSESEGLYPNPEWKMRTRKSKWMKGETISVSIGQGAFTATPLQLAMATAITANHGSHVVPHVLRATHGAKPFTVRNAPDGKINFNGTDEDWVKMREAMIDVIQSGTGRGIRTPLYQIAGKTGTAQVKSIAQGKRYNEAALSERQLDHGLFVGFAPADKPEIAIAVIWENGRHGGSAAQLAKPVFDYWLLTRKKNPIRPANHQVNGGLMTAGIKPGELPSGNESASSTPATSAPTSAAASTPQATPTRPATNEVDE

SMILES	EC50 (A. baumannii PBP2) [µM]	EC50 (A. baumannii PBP1a) [µM]
O=C(NCCS(=O)(=O)N1CCN(C(=O)NC(C(=O)N[C@H]2Cc3ccc(F)c(C(=O)O)c3OB2O)c2cc(F)c(O)c(O)c2Cl)C1=O)Nc1cccc(O)c1 (stereo partly drawn) [Example 266, (3R)-3-(2-(2-chloro-5-fluoro-3,4-dihydroxyphenyl)-2-(3-((2-(3-(3-hydroxyphenyl)ureido)ethyl)sulfonyl)-2-oxoimidazolidine-1-carboxamido)acetamido)-7-fluoro-2-hydroxy-3,4-dihydro-2H-benzo[e][1,2]oxaborinine-8-carboxylic acid]	10 to 50	< 10
O=C(NCCCS(=O)(=O)N1CCN(C(=O)NC(C(=O)N[C@H]2Cc3ccc(F)c(C(=O)O)c3OB2O)c2cc(F)c(O)c(O)c2Cl)C1=O)c1nccs1 (stereo partly drawn) [Example 274, (3R)-3-(2-(2-chloro-5-fluoro-3,4-dihydroxyphenyl)-2-(2-oxo-3-((3-(thiazole-2-carboxamido)propyl)sulfonyl)imidazolidine-1-carboxamido)acetamido)-7-fluoro-2-hydroxy-3,4-dihydro-2H-benzo[e][1,2]oxaborinine-8-carboxylic acid]	–	< 10
O=C(NCCN1CCN(C(=O)NC(C(=O)N[C@H]2Cc3ccc(F)c(C(=O)O)c3OB2O)c2cc(F)c(O)c(O)c2Cl)C(=O)C1=O)Nc1ccc(O)cc1 (stereo partly drawn) [Example 219, (3R)-3-(2-(2-chloro-5-fluoro-3,4-dihydroxyphenyl)-2-(4-(2-(3-(4-hydroxyphenyl)ureido)ethyl)-2,3-dioxopiperazine-1-carboxamido)acetamido)-7-fluoro-2-hydroxy-3,4-dihydro-2H-benzo[e][1,2]oxaborinine-8-carboxylic acid]	10 to 50	< 10
O=C(NCCCN1CCN(C(=O)N[C@@H](C(=O)N[C@H]2Cc3ccc(F)c(C(=O)O)c3OB2O)c2cc(F)c(O)c(O)c2Cl)C1=O)c1ccccc1 [Example 253, (R)-3-((R)-2-(3-(3-benzamidopropyl)-2-oxoimidazolidine-1-carboxamido)-2-(2-chloro-5-fluoro-3,4-dihydroxyphenyl)acetamido)-7-fluoro-2-hydroxy-3,4-dihydro-2H-benzo[e][1,2]oxaborinine-8-carboxylic acid]	< 10	10 to 50
O=C(NCCN1CCN(C(=O)NC(C(=O)N[C@H]2Cc3ccc(F)c(C(=O)O)c3OB2O)c2cc(F)c(O)c(O)c2Cl)C(=O)C1=O)c1ccccc1 (stereo partly drawn) [Example 207, (3R)-3-(2-(4-(2-benzamidoethyl)-2,3-dioxopiperazine-1-carboxamido)-2-(2-chloro-5-fluoro-3,4-dihydroxyphenyl)acetamido)-7-fluoro-2-hydroxy-3,4-dihydro-2H-benzo[e][1,2]oxaborinine-8-carboxylic acid]	–	10 to 50
O=C(NCCCS(=O)(=O)N1CCN(C(=O)NC(C(=O)N[C@H]2Cc3ccc(F)c(C(=O)O)c3OB2O)c2cc(F)c(O)c(O)c2Cl)C1=O)c1ccncc1 (stereo partly drawn) [Example 272, (3R)-3-(2-(2-chloro-5-fluoro-3,4-dihydroxyphenyl)-2-(3-((3-(isonicotinamido)propyl)sulfonyl)-2-oxoimidazolidine-1-carboxamido)acetamido)-7-fluoro-2-hydroxy-3,4-dihydro-2H-benzo[e][1,2]oxaborinine-8-carboxylic acid]	–	10 to 50
O=C(NCCCS(=O)(=O)N1CCN(C(=O)NC(C(=O)N[C@H]2Cc3ccc(F)c(C(=O)O)c3OB2O)c2cc(F)c(O)c(O)c2Cl)C1=O)c1cccnc1 (stereo partly drawn) [Example 273, (3R)-3-(2-(2-chloro-5-fluoro-3,4-dihydroxyphenyl)-2-(3-((3-(nicotinamido)propyl)sulfonyl)-2-oxoimidazolidine-1-carboxamido)acetamido)-7-fluoro-2-hydroxy-3,4-dihydro-2H-benzo[e][1,2]oxaborinine-8-carboxylic acid]	10 to 50	–
O=C(NCCS(=O)(=O)N1CCN(C(=O)NC(C(=O)N[C@H]2Cc3ccc(F)c(C(=O)O)c3OB2O)c2cc(F)c(O)c(O)c2Cl)C1=O)c1ccccc1 (stereo partly drawn) [Example 260, (3R)-3-(2-(3-((2-benzamidoethyl)sulfonyl)-2-oxoimidazolidine-1-carboxamido)-2-(2-chloro-5-fluoro-3,4-dihydroxyphenyl)acetamido)-7-fluoro-2-hydroxy-3,4-dihydro-2H-benzo[e][1,2]oxaborinine-8-carboxylic acid]	10 to 50	–
O=C(NCCN1CCN(C(=O)NC(C(=O)N[C@H]2Cc3ccc(F)c(C(=O)O)c3OB2O)c2cc(F)c(O)c(O)c2Cl)C1=O)c1cccc(O)c1 (stereo partly drawn) [Example 244, (3R)-3-(2-(2-chloro-5-fluoro-3,4-dihydroxyphenyl)-2-(3-(2-(3-hydroxybenzamido)ethyl)-2-oxoimidazolidine-1-carboxamido)acetamido)-7-fluoro-2-hydroxy-3,4-dihydro-2H-benzo[e][1,2]oxaborinine-8-carboxylic acid]	–	10 to 50
O=C(NCCCS(=O)(=O)N1CCN(C(=O)NC(C(=O)N[C@H]2Cc3ccc(F)c(C(=O)O)c3OB2O)c2cc(F)c(O)c(O)c2Cl)C1=O)c1ccccc1 (stereo partly drawn) [Example 268, (3R)-3-(2-(3-((3-benzamidopropyl)sulfonyl)-2-oxoimidazolidine-1-carboxamido)-2-(2-chloro-5-fluoro-3,4-dihydroxyphenyl)acetamido)-7-fluoro-2-hydroxy-3,4-dihydro-2H-benzo[e][1,2]oxaborinine-8-carboxylic acid]	10 to 50	10 to 50
CN(CCN1CCN(C(=O)N[C@@H](C(=O)N[C@H]2Cc3ccc(F)c(C(=O)O)c3OB2O)c2cc(F)c(O)c(O)c2Cl)C(=O)C1=O)Cc1cccnc1 [Example 201, (R)-3-((R)-2-(2-chloro-5-fluoro-3,4-dihydroxyphenyl)-2-(4-(2-(methyl(pyridin-3-ylmethyl)amino)ethyl)-2,3-dioxopiperazine-1-carboxamido)acetamido)-7-fluoro-2-hydroxy-3,4-dihydro-2H-benzo[e][1,2]oxaborinine-8-carboxylic acid]	–	10 to 50
O=C(CN1CCN(C(=O)NC(C(=O)N[C@H]2Cc3ccc(F)c(C(=O)O)c3OB2O)c2cc(F)c(O)c(O)c2Cl)C(=O)C1=O)Nc1ccc(O)cc1 (stereo partly drawn) [Example 230, (3R)-3-(2-(2-chloro-5-fluoro-3,4-dihydroxyphenyl)-2-(4-(2-((4-hydroxyphenyl)amino)-2-oxoethyl)-2,3-dioxopiperazine-1-carboxamido)acetamido)-7-fluoro-2-hydroxy-3,4-dihydro-2H-benzo[e][1,2]oxaborinine-8-carboxylic acid]	–	10 to 50
O=C(NCCN1CCN(C(=O)NC(C(=O)N[C@H]2Cc3ccc(F)c(C(=O)O)c3OB2O)c2cc(F)c(O)c(O)c2Cl)C1=O)c1ccc(O)cc1 (stereo partly drawn) [Example 243, (3R)-3-(2-(2-chloro-5-fluoro-3,4-dihydroxyphenyl)-2-(3-(2-(4-hydroxybenzamido)ethyl)-2-oxoimidazolidine-1-carboxamido)acetamido)-7-fluoro-2-hydroxy-3,4-dihydro-2H-benzo[e][1,2]oxaborinine-8-carboxylic acid]	–	10 to 50
O=C(NCCCS(=O)(=O)N1CCN(C(=O)NC(C(=O)N[C@H]2Cc3ccc(F)c(C(=O)O)c3OB2O)c2cc(F)c(O)c(O)c2Cl)C1=O)Nc1ccc(O)cc1 (stereo partly drawn) [Example 276, (3R)-3-(2-(2-chloro-5-fluoro-3,4-dihydroxyphenyl)-2-(3-((3-(3-(4-hydroxyphenyl)ureido)propyl)sulfonyl)-2-oxoimidazolidine-1-carboxamido)acetamido)-7-fluoro-2-hydroxy-3,4-dihydro-2H-benzo[e][1,2]oxaborinine-8-carboxylic acid]	–	< 10
